Test results taken from patent US9969719B2, “Substituted 2-hydrogen-pyrazole derivative serving as anticancer drug” (CHIA TAI TIANQING PHARMACEUTICAL GROUP CO., LTD., priority 2015, dated 2018).
Read-outs that look alike come from different tables or passages of the source.

Tests used:
MDA-MB-436 cells = assay: MDA-MB-436 cell proliferation (CellTiter-Glo); type: cell-based; conditions: Homo sapiens
Description: RPMI 1640 medium, fetal bovine serum, penicillin/streptomycin were purchased from Promega (Madison, Wis.). The MCF-7 cell line and the MDA-MB-436 cell line were purchased from the European Collection of Authenticated Cell Cultures (ECACC). EnVision® Multilabel Plate Reader (PerkinElmer) was used.
(§1) The compounds to be tested were diluted three times using Bravo to the tenth concentration, i.e., diluted from 10 μM to 0.508 nM. A duplicate well test was performed. The medium was added to the middle plate in an amount of 49 μL per well. The gradient dilutions of the compounds were transferred in an amount of 1 μL per well to the middle plate at the corresponding positions, and the mixture was mixed and transferred to the cell plate in an amount of 5 μL per well. The cell plate was incubated in a carbon dioxide incubator for 6 days. Promega CellTiter-Glo reagent was added to the cell plate in an amount of 25 μL per well. The cell plate was incubated at room temperature for 10 minutes to stabilize the luminescence signal. EnVision® Multilabel Plate Reader (PerkinElmer) was used for signal detection.
The IC50 values were obtained by curve fitting using four parameters (obtained from the 205 mode in XLFIT5, iDBS). Table 1 provides the inhibitory activities of the compounds of the invention against the proliferation of MCF-7 cells and MDA-MB-436 cells.

[1] = Study of brain permeability after oral administration; type: in vivo, SD rats
Description: SD rats were used as the test animals.
Twelve healthy 7- to 9-week-old adult male SD rats were purchased from Shanghai Slack Laboratory Animal Co., Ltd. A proper amount of the test compound was weighed to prepare a 0.5% methylcellulose suspension at 1 mg/mL. The rats received a single oral dose of 10 mg/kg. 0.5 h, 2 h, 8 h, and 24 hours after the administration, 3 rats were respectively killed, and their whole blood and brain tissues were collected. The plasma was prepared by centrifuging the whole blood (3000 g, 15 minutes, 4° C.). The samples of brain homogenate were prepared by mixing the brain tissues with a mixture of methanol and a phosphate buffer (methanol:phosphate buffer=1:2) as homogenate at a ratio of 5:1. The drug concentration of each sample was determined by LC/MS/MS, and AUC was calculated to evaluate the exposure.

MCF-7 cells = assay: MCF-7 cell proliferation (CellTiter-Glo, 6 days); type: cell-based, human; conditions: for IC50: Homo sapiens, MCF7, proliferation, 6 days; for MCF-7/MDA-MB-436: ratio of the proliferation IC50 values
Description: EnVision® Multilabel Plate Reader (PerkinElmer) was used.
MCF-7 cells were inoculated in a black 384-well plate by adding 45 μL of the cell suspension (containing 200 of MCF-7 cells) to each of the wells. The plate was incubated overnight in a carbon dioxide incubator.
as §1, with “A” for “The compounds to be tested were diluted three times using Bravo to the tenth concentration, i.e., diluted from 10 μM to 0.508 nM. A”

CDK2/cyclin A = biological target: T1, CDK2/cyclin A (Homo sapiens, UniProt P24941); assay: CDK2/cyclin A Lance Ultra enzyme assay; type: biochemical; conditions: 25 μM ATP, 60 minutes
T1 construct: purchased Life Technologies
Description: (§2) The experimental materials included CDK2/cyclin A, CDK4/cyclin D1, CDK6/cyclin D1 (Life Technologies); ULight-labeled polypeptide substrates, i.e., ULight-4E-BP1 and ULight-MBP (PerkinElmer); the europium-labeled antibody against anti-myelin basic protein and europium-labeled rabbit antibody (PerkinElmer); and Envision® Multilabel Plate Reader (PerkinElmer) used for signal detection.
(§3) The compounds to be tested were diluted three times so as to be at ten gradually varied concentrations.
(§4) The gradient dilutions of the compounds were dissolved in enzyme buffer, respectively. The components of the buffer included 50 mM hydroxyethylpiperazine ethanesulfonic acid solution (pH 7.5), 1 mM ethylenediaminetetraacetic acid, 10 mM magnesium chloride, 0.01% Brij-35, and 2 mM dithiothreitol. After the reaction started, the OptiPlate 384-well plate was sealed with top heat-sealing film TopSeal-A and incubated at room temperature for 60 minutes. • The Enzyme Reaction System of CDK4/Cyclin D1
(§5) The stop buffer of the enzyme reaction was prepared by dissolving EDTA in a one-fold dilution of the assay buffer. The reaction was terminated at room temperature for 5 minutes. To each of the reaction systems of CDK2/cyclin A, CDK4/cyclin D1 and CDK6/cyclin D1 was added 5 μL assay mixture (provided with antibody the europium-labeled against anti-myelin basic protein and the europium-labeled rabbit antibody, respectively). They were incubated at room temperature for 60 minutes. The reaction signals were detected by the EnVision instrument according to the principle of time-resolved fluorescence resonance energy transfer.

CDK6/cyclin D1 = biological target: T2, CDK6/cyclin D1 (Homo sapiens, UniProt Q00534); assay: CDK6/cyclin D1 Lance Ultra enzyme assay; type: biochemical; conditions: 250 μM ATP, 180 minutes
T2 construct: purchased Life Technologies
Description: as §2, §3
as §4, with “The” for “The gradient”, “180” for “60”, “minutes.” for “minutes. • The Enzyme Reaction System of CDK4/Cyclin D1”
as §5

CDK4/cyclin D1 = biological target: T3, CDK4/cyclin D1 (Homo sapiens, UniProt P11802); assay: CDK4/cyclin D1 Lance Ultra enzyme assay; type: biochemical; conditions: 350 μM ATP, 180 minutes
T3 construct: purchased Life Technologies
Description: as §2, §3
as §4, with “The” for “The gradient”, “180” for “60”, “CDK6/Cyclin” for “CDK4/Cyclin”
as §5

[2] = Caco-2 cell bi-directional permeability assessment; conditions: human, Caco-2, pH 7.4
Description: (§6) The standard experimental conditions were as follows: • Test concentration: 2 μM (DMSO≤1%); • Number of replication: n=2; • Direction: bi-directional transportation, including two directions, i.e., A→B and B→A; • Incubation time: single time point, 2 hours; • Transport buffer: HBSS, pH 7.4; • Incubation conditions: 37° C., 5% CO2.
(§7) After the incubation, sample solutions taken from the dosing wells and the receiving wells were immediately mixed with a cold acetonitrile solution containing the internal standard. Concentrations of the test compounds in all samples (including the initial dosing solutions, the supernatants of the dosing wells and the receiving solutions) were determined by a LC/MS/MS method. The apparent permeability coefficients, the efflux ratios and other parameters were calculated.

Caco-2 monolayer cells [3] = assay: Caco-2 cell bi-directional permeability assessment
Description: as §6, §7

[4] = system: human breast cancer cell line MCF-7; type: in vivo
Description: The in vivo pharmacodynamic study was carried out in human-based tumor cell line-derived xenografted (CDX) BALB/c nude mice, in which were subcutaneously implanted human breast cancer cell line MCF-7.
. All the cages, matts and water were disinfected before use. All the animals had free access to a standard certified commercial laboratory diet. A total of 100 mice were purchased from Shanghai BK Laboratory Animal Co., LTD for study. An estrogen tablet ([…], sustained release within 60 days) was subcutaneously implanted in the left next abdomen of each mice. After 3 days, the tumor cells (10×10^6 in 0.2 mL of phosphate buffer) were subcutaneously implanted in the right next abdomen of each mice for the tumor growth. The administration started when the average tumor volume reached about 150-200 mm^3. The test compounds were orally administered daily, the doses were shown as Table 5. The tumor volumes were measured with a two-dimensional caliper every three days, the volumes were expressed in cubic millimeters and calculated by the formula V=0.5a×b^2, wherein a and b were the major diameter and minor diameter of the tumor, respectively. Antitumor efficacy was determined by dividing an average increase of the tumor volumes of the animals treated with the compounds by an increase of the tumor volumes of the untreated animals.

in vitro = conditions: human, Caco-2, pH 7.4
Description: as §6, §7

Caco-2 monolayer cells [5] = system: Caco-2 monolayer cells
Description: as §6, §7

[6] = 10 mg/kg oral, time point 0.5 h
[7] = human, Caco-2, 2 h, 2 μM, pH 7.4

T3 sequence (P11802 whole entry): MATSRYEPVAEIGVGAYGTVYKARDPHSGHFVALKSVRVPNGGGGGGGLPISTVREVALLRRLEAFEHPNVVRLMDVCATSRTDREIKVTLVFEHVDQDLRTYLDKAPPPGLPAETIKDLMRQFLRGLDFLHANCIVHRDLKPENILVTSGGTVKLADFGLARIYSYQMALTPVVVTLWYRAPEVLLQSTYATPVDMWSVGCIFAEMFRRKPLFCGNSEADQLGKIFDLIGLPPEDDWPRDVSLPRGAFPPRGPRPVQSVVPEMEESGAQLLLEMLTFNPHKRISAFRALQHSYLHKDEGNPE
T3 sequence (P24385 whole entry partner): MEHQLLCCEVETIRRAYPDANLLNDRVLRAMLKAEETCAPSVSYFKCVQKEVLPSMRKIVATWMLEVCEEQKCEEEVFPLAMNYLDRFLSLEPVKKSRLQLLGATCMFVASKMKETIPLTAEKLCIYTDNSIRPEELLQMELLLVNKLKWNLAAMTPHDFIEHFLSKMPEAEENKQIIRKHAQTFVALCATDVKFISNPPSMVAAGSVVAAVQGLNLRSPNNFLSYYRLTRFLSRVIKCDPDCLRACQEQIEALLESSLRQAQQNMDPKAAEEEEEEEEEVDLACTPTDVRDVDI
T2 sequence (Q00534 whole entry): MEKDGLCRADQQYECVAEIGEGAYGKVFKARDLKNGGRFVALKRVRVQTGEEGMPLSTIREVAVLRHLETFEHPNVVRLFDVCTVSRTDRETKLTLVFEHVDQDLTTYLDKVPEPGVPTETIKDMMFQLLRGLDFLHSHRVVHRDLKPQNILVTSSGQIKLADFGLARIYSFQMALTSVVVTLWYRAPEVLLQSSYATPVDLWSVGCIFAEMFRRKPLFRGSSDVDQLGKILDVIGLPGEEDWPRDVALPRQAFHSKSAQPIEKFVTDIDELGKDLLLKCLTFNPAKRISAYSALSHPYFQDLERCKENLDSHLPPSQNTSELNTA
T2 sequence (P24385 whole entry partner): as the sequence (P24385 whole entry partner) above

For `CC(C)c1c2cc(-c3nc(Nc4ccc(N5CCN(CCC#N)CC5)cn4)ncc3F)ccc2nn1C` [Example 7, 3-[4-[6-[[5-fluoro-4-(3-isopropyl-2-methyl-2H-indazol-5-yl)pyrimidin-2-yl]amino]-3-pyridyl]piperazin-1-yl]propanenitrile], the IC50 (MDA-MB-436 cells) was 1160 nM, the “exposure in brain after 8 hours” value ([1]; 10 mg/kg oral, in words) was “significantly decreased” and the Exposure in brain [1, 6] was 1564 nmol/kg. The Exposure in brain ([1]; 10 mg/kg oral, time point 2 h) was 2922 nmol/kg, the Exposure in brain ([1]; 10 mg/kg oral, time point 8 h) was 307 nmol/kg and the “exposure in brain tissue compared with the reference compounds” value ([1]; rat, versus Palbociclib and LY2835219, in words, b797: 0.5 hour and 2 hour) was “higher exposure”. For the same compound, the IC50 (MCF-7 cells) was 37.2 nM, the MCF-7/MDA-MB-436 (MCF-7 cells) was 31.1 and the “selectivity in inhibiting the proliferation of estrogen receptor positive breast cancer cells (MCF-7/MDA-MB-436)” value (MCF-7 cells; versus LY2835219, in words) was “higher selectivity”. For the same compound, the “inhibitory activities against the proliferation of MCF-7 cells compared with the reference compounds” value (MCF-7 cells; versus Palbociclib and LY2835219, in words) was “higher inhibitory activities”, the IC50 (CDK2/cyclin A) was 12 nM and the IC50 (CDK6/cyclin D1) was 4.52 nM. The IC50 (CDK4/cyclin D1) was 1.82 nM, the Papp A→B at 2 h, 2 μM [2] was 6.55 ×10⁻⁶ cm/s and the Papp B→A at 2 h, 2 μM [2] was 3.38 ×10⁻⁶ cm/s. The efflux ratio at 2 h, 2 μM [2] was 0.52, the “Classification Permeability” value (Caco-2 monolayer cells [3]; Caco-2) was “High” and the “Classification Substrates of efflux transporters” value (Caco-2 monolayer cells [3]; Caco-2) was “Unlikely”. The “permeability compared with the reference compounds” value (Caco-2 monolayer cells [3]; Caco-2, versus Palbociclib and LY2835219, in words) was “higher permeability”, the Tomor volumes ([4]; 50.0 mg/kg orally daily, 0 day) was 187 mm^3 and the Tomor volumes ([4]; 50.0 mg/kg orally daily, 7th day) was 271 mm^3. The Tomor volumes ([4]; 50.0 mg/kg orally daily, 14th day) was 318 mm^3, the Tomor volumes ([4]; 50.0 mg/kg orally daily, 21st day) was 350 mm^3 and the “antitumor activities in the CDX model of MCF-7 breast cancer” value ([4]; in words) was “significant antitumor activities”.
`CC(=O)c1c(C)c2cnc(Nc3ccc(N4CCNCC4)cn3)nc2n(C2CCCC2)c1=O` [Palbociclib, reference compound] showed an IC50 (MDA-MB-436 cells) of 9840 nM, a Papp A→B at 2 h, 2 μM (in vitro) of 0.85 ×10⁻⁶ cm/s and a Papp B→A at 2 h, 2 μM (in vitro) of 16.5 ×10⁻⁶ cm/s. The Exposure in brain [1, 6] was 80 nmol/kg, the Exposure in brain ([1]; 10 mg/kg oral, time point 2 h) was 329 nmol/kg and the Exposure in brain ([1]; 10 mg/kg oral, time point 8 h) was 184 nmol/kg. For the same compound, the IC50 (MCF-7 cells) was 87 nM, the MCF-7/MDA-MB-436 (MCF-7 cells) was 113 and the “Classification Permeability” value (Caco-2 monolayer cells [5]; Caco-2) was “Medium”. For the same compound, the “Average apparent permeability coefficient A to B” value (Caco-2 monolayer cells [5]; [7]) was 9.18 10^−6 cm/s, the “Average apparent permeability coefficient B to A” value (Caco-2 monolayer cells [5]; [7]) was 7.51 10^−6 cm/s and the Tomor volumes ([4]; 45.0 mg/kg orally daily, 0 day) was 187 mm^3. The Tomor volumes ([4]; 45.0 mg/kg orally daily, 7th day) was 264 mm^3, the Tomor volumes ([4]; 45.0 mg/kg orally daily, 14th day) was 387 mm^3 and the Tomor volumes ([4]; 45.0 mg/kg orally daily, 21st day) was 633 mm^3. The “tolerability of high doses in the animals” value ([4]; mouse, in vivo) was “intolerable”.
